Consider 23 molecules from patent US8993565B2, “(6-oxo-1,6-dihydropyrimidin-2-yl)amide derivatives, preparation thereof and pharmaceutical use thereof as AKT(PKB) phosphorylation inhibitors” (Sanofi, priority 2009, dated 2015).

Data set [1] deals with AKT protein phosphorylated on serine 473 (P-AKT-S473). Nature of the data set: Study of pAKT expression in PC3 human prostate carcinoma cells measured by the MSD Multi-spot Biomarker Detection technique (Test B). Particulars: PC-3, inhibition of AKT phosphorylation (P-AKT-S473), MSD sandwich immunoassay, 1 to 2 h incubation, absolute IC50, mean of 2 experiments. The class given is cell-based. A digest of the protocol: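 Lysate P-AKT-S473 quantified by MSD electrochemiluminescent sandwich immunoassay; inhibition vs DMSO and cell-free background, IC50 averaged over 2 experiments.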

The test system of data set [2] is AKT protein phosphorylated on serine 473 (pAKT-S473). Nature of the data set: Study of pAKT expression in PC3 human prostate carcinoma cells measured by western blotting (Test A). To be noted: PC-3, inhibition of AKT phosphorylation (pAKT-S473), 1 to 2 hours incubation, absolute IC50, mean of two experiments. The class given is cell-based. As to the method: The inhibitory activity of the molecules on AKT phosphorylation is measured either by western blotting using the technique described below, or by the MSD Multi-spot Biomarker detection technique from Meso Scale Discovery also described below.
Study of pAKT Expression in PC3 Human Prostate Carcinoma Cells Measured by Western Blotting (Test A):
On day 2, the cells are incubated in the presence or absence of the test products for 1 to 2 hours at 37° C. in the presence of 5% CO2. The molecules, diluted in dimethyl sulphoxide (DMSO Sigma #D2650), are added from a 10-times concentrated stock solution, the final percentage of DMSO being 0.1%. The molecules are tested either at a single concentration of less than or equal to 10 μM, or at increasing concentrations in a range that can extend from less than 1 nM to 10 μM.
After this incubation, the cells are lysed for the preparation of the proteins.
The lysate is centrifuged for 10 min at 6000 rpm. 155 μl of supernatant are recovered. 150 μl are incubated for denaturation for 5 min at 95° C. in the presence of 4× NuPAGE LDS Sample Buffer diluted 4-fold (InVitrogen ref NP0007) and of 10× NuPAGE Sample Reducing Agent diluted 10-fold (InVitrogen ref NP0009). These samples are then frozen at −20° C.
The gel is then transferred on to an Invitrolon PVDF membrane (Invitrogen #LC2007) permeabilised beforehand and for a few seconds in ethanol (Ethanol Fischer Scientific #E/0600DF/15).
The transfer is carried out in a Biorad tank at 30 volts overnight or at 60 volts for 3 hours, in the presence of 20× NUPAGE Transfer Buffer diluted 20-fold (InVitrogen ref NP0006).
The membrane is then saturated in saturating solution composed of TBS (10× Tris Buffered Saline, Sigma #T5912, diluted 10-fold), 0.1% Tween (Sigma #P5927) and 3% BSA (Bovine Albumin Serum Fraction V, Sigma #A4503) for 6 h after overnight transfer or else for 1 h after transfer for a period of 3 h.
Two rinses for min in washing solution composed of TBS and 0.1% Tween 20 are carried out before hybridisation of the secondary antibodies.
The secondary antibodies are diluted 110000th for the rabbit anti-Mouse IgG HRP antibody (W402 Promega) and to 110000th for the goat anti-Rabbit IgG HRP antibody (W401 Promega) in saturating solution, and then shaken for 1 h at ambient temperature.
Two rinses for 30 min in washing solution are carried out and then a rinse for 5 min in H2O is carried out in order to eliminate the remaining Tween 20.
The luminescence is read with the FujiFilm device (Ray Test).
The FUJI device measures the total luminescence signal obtained (AU) for each band selected. It then subtracts the background noise (BG) proportional to the size of the band selected (Area), said background noise being calculated from a specific background noise band, with a view to obtaining the specific signal (AU-BG) for each band. The band obtained in the absence of product and in the presence of 0.1% DMSO is considered to be the 100% signal. The software calculates the % specific activity (Ratio) obtained for each band selected as a function of this 100% signal. The percentage inhibition is calculated for each concentration according to the formula (100%−Ratio).
Two independent experiments make it possible to calculate the mean of the percentages of inhibition obtained at a given concentration for the products tested only at one concentration.
Two independent experiments make it possible to calculate the mean of the IC50s.

The term IC50 denotes the point on the concentration scale where inhibition reaches its midpoint. Lower therefore signals greater potency in that assay. What is called melting point is the temperature of the solid-liquid transition.

Take `O=C(Cc1nc(N2CCOCC2)cc(=O)[nH]1)Nc1cc(F)cc(F)c1` [Example 13, N-(3,5-difluorophenyl)-2-[4-(morpholin-4-yl)-6-oxo-1,6-dihydropyrimidin-2-yl]acetamide]: the melting point was over 260 °C. In data set [1], half-maximal inhibition (IC50) required 71 nM.

For the molecule `CCn1c(CC(=O)Nc2ccc(F)cc2)nc(N2CCOCC2)cc1=O` [Example 70, 2-[1-ethyl-4-(morpholin-4-yl)-6-oxo-1,6-dihydropyrimidin-2-yl]-N-(4-fluorophenyl)acetamide], the melting point was found to be 238 °C. The molecule also came in with a half-inhibitory concentration (IC50) in data set [1] of 195 nM.

`O=C(Cc1nc(N2CCOCC2)cc(=O)[nH]1)Nc1cccc2[nH]ccc12` [Example 71, N-(1 H-indol-4-yl)-2-[4-(morpholin-4-yl)-6-oxo-1,6-dihydropyrimidin-2-yl]acetamide]: the values for the IC50 in data set [1] and in data set [2] were 120 nM and 5380 nM, respectively.

For the molecule `CC(C)C(C(=O)Nc1ccc(F)cc1)c1nc(N2CCOCC2)cc(=O)[nH]1` (stereo not shown) [Example 72, N-(4-fluorophenyl)-3-methyl-2-[4-(morpholin-4-yl)-6-oxo-1,6-dihydropyrimidin-2-yl]butanamide], the melting point is 266 °C. The midpoint of inhibition in data set [1], the IC50, lay at 89 nM.

`O=C(Cc1nc(N2CCOCC2)cc(=O)[nH]1)Nc1cccc(OC(F)(F)C(F)F)c1` [Example 75, 2-[4-(morpholin-4-yl)-6-oxo-1,6-dihydropyrimidin-2-yl]-N-[3-(1,1,2,2-tetrafluoroethoxy)phenyl]acetamide] had a melting point of 229 °C. The molecule also came in with an IC50 in data set [1] of 69 nM.

`Cn1c(CC(=O)Nc2cccc(C3CC3)c2)nc(N2CCOCC2)cc1=O` [Example 82, N-(3-cyclopropylphenyl)-2-[1-methyl-4-(morpholin-4-yl)-6-oxo-1,6-dihydropyrimidin-2-yl]acetamide] registered a melting point of 216 °C. The same molecule yielded an IC50 in data set [1] of 133 nM.

For `Cn1c(CC(=O)Nc2ccc(F)c(C3CC3)c2)nc(N2CCOCC2)cc1=O` [Example 86, N-(3-cyclopropyl-4-fluorophenyl)-2-[1-methyl-4-(morpholin-4-yl)-6-oxo-1,6-dihydropyrimidin-2-yl]acetamide], the melting point stood at 245 °C. Also, the IC50 in data set [1] came out at 26 nM.

On to `Cn1c(CC(=O)N2CCc3c(F)cccc32)nc(N2CCOCC2)cc1=O` [Example 102, 2-[2-(4-fluoro-2,3-dihydro-1H-indol-1-yl)-2-oxoethyl]-3-methyl-6-(morpholin-4-yl)pyrimidin-4(3H)-one], for which the melting point was found to be 244 °C. The half-inhibitory concentration (IC50) in data set [1] was found to be 43 nM.

`Cn1c(CC(=O)N2CCc3c(Cl)cccc32)nc(N2CCOCC2)cc1=O` [Example 104, 2-[2-(4-chloro-2,3-dihydro-1H-indol-1-yl)-2-oxoethyl]-3-methyl-6-(morpholin-4-yl)pyrimidin-4(3H)-one] gave a melting point of 235 °C. In data set [1], this molecule had an IC50 of 42 nM.

In turn, `O=C(Cc1nc(N2CCOCC2)cc(=O)[nH]1)N1c2ccccc2CC1CO` (stereo not shown) [Example 106, 2-{2-[2-(hydroxymethyl)-2,3-dihydro-1 H-indol-1-yl]-2-oxoethyl}-6-(morpholin-4-yl)pyrimidin-4(3H)-one] registered a melting point of 200 °C. In data set [1], the IC50 came out at 27 nM.

Regarding `COc1cccc2c1CCN2C(=O)Cc1nc(N2CCOCC2)cc(=O)n1C` [Example 110, 2-[2-(4-methoxy-2,3-dihydro-1H-indol-1-yl)-2-oxoethyl]-3-methyl-6-(morpholin-4-yl)pyrimidin-4(3H)-one], the melting point was found to be 229 °C. The IC50 in data set [1] amounted to 278 nM.

`O=C(Cc1nc(N2CCOCC2)cc(=O)[nH]1)N1CCc2ccccc2C1` [Example 111, 2-[2-(3,4-dihydroisoquinolin-2(1H)-yl)-2-oxoethyl]-6-(morpholin-4-yl)pyrimidin-4(3H)-one] yielded a melting point of 107.5 °C. For the same molecule, in data set [1], the half-maximal inhibitory concentration (IC50) is 301 nM.

Molecule `Cc1cccc2c1CCN2C(=O)Cc1nc(N2CCOCC2)cc(=O)n1C` [Example 114, 3-methyl-2-[2-(4-methyl-2,3-dihydro-1H-indol-1-yl)-2-oxoethyl]-6-(morpholin-4-yl)pyrimidin-4(3H)-one] displayed a melting point of 239 °C. The same molecule yielded an IC50 in data set [1] of 26 nM.

Consider `CN(C)CC1CN(C(=O)Cc2nc(N3CCOCC3)cc(=O)[nH]2)c2ccccc21` (stereo not shown) [Example 115, 2-[2-(3-dimethylaminomethyl-2,3-dihydroindol-1-yl)-2-oxoethyl]-6-morpholin-4-yl-3H-pyrimidin-4-one], for which the melting point amounted to 243 °C. Half-maximal inhibition in data set [1] (IC50) required 10 nM.

As for `Cn1c(CC(=O)N2CCc3c(Br)cccc32)nc(N2CCOCC2)cc1=O` [Example 116, 2-[2-(4-bromo-2,3-dihydro-1 H-indol-1-yl)-2-oxoethyl]-3-methyl-6-(morpholin-4-yl)pyrimidin-4(3H)-one], the melting point amounted to 226 °C. Moreover, in data set [1], inhibition was half-maximal at 51 nM (IC50).

As to `CC1CN(C(=O)Cc2nc(N3CCOCC3)cc(=O)n2C)c2ccccc21` (stereo not shown) [Example 119, 3-methyl-2-[2-(3-methyl-2,3-dihydro-1H-indol-1-yl)-2-oxoethyl]-6-(morpholin-4-yl)pyrimidin-4(3H)-one], the melting point was determined as 225 °C. In data set [1], this molecule showed an IC50 of 194 nM.

In turn, `COCC1Cc2ccccc2N1C(=O)Cc1nc(N2CCOCC2)cc(=O)[nH]1` (stereo not shown) [Example 120, 2-{2-[2-(methoxymethyl)-2,3-dihydro-1H-indol-1-yl]-2-oxoethyl}-6-(morpholin-4-yl)pyrimidin-4(3H)-one] gave a melting point of 112 to 115 °C. Inhibition in data set [1] was half-maximal at 11 nM (IC50).

`CCOc1cccc2c1CCN2C(=O)Cc1nc(N2CCOCC2)cc(=O)[nH]1` [Example 121, 2-[2-(4-ethoxy-2,3-dihydro-1H-indol-1-yl)-2-oxoethyl]-6-(morpholin-4-yl)pyrimidin-4(3H)-one] gave a melting point of 257 °C. The molecule further registered an IC50 in data set [1] of 44 nM.

Molecule `CC1Cc2ccccc2N1C(=O)Cc1nc(N2CCOCC2)cc(=O)n1C` (stereo not shown) [Example 123, 3-methyl-2-[2-(2-methyl-2,3-dihydro-1H-indol-1-yl)-2-oxoethyl]-6-(morpholin-4-yl)pyrimidin-4(3H)-one] came in with a melting point of 148 °C. The IC50 in data set [1] was determined as 77 nM.

Take `Cn1c(CC(=O)N2CCc3ccc(F)cc32)nc(N2CCOCC2)cc1=O` [Example 124, 2-[2-(6-fluoro-2,3-dihydro-1H-indol-1-yl)-2-oxoethyl]-3-methyl-6-(morpholin-4-yl)pyrimidin-4(3H)-one]: the melting point amounted to 223 °C. The IC50 in data set [1] was determined as 124 nM.

On to `Cn1c(CC(=O)N2CCc3cc(F)c(F)cc32)nc(N2CCOCC2)cc1=O` [Example 127, 2-[2-(5,6-difluoro-2,3-dihydro-1H-indol-1-yl)-2-oxoethyl]-3-methyl-6-(morpholin-4-yl)pyrimidin-4(3H)-one], for which the melting point was found to be 250 °C. The molecule further displayed a concentration for half-maximal inhibition (IC50) in data set [1] of 61 nM.

`Cn1c(CC(=O)Nc2cccc3sccc23)nc(N2CCOCC2)cc1=O` [Example 130, N-(1-benzothiophen-4-yl)-2-[1-methyl-4-(morpholin-4-yl)-6-oxo-1,6-dihydropyrimidin-2-yl]acetamide] showed a melting point of 254 °C. The concentration for half-maximal inhibition (IC50) in data set [1] was found to be 70 nM.

Molecule `O=C(Cc1nc(N2CCOCC2)cc(=O)[nH]1)N1CCCc2c(Cl)cccc21` [Example 131, 2-[2-(5-chloro-3,4-dihydroquinolin-1(2H)-yl)-2-oxoethyl]-6-(morpholin-4-yl)pyrimidin-4(3H)-one] displayed a melting point of 238 °C. Moreover, the half-maximal inhibitory concentration (IC50) in data set [1] amounted to 41 nM.
